Experimental data reported in patent publication US5854010A, “Bioassay for detecting 2,3,7,8-tetrachlorodibenzo-para-dioxin and TCDD-like compounds and novel recombinant cell line useful therefor” (priority 1997, dated 1998).

Experiments:
[1] = test system: H1L1.1 cells; assay: Dose response of luciferase induction, 24 h (FIGS. 3-6, Table 3); type: cell-based, mouse; conditions: for Emax / EC50: Mus musculus; for Emax / Induction of luciferase activity: mono-ortho-PCBs, FIG. 4; for Emax: vs 1 nM TCDD, read-out: Luciferase induction as % of that observed with TCDD; for Maximal luciferase expression / Relative inducing potency versus TCDD: fused-ring PAHs, FIG. 6
Method: The graph of FIG. 3 illustrates the dose dependence of luciferase induction in the mouse H1L1.1 cells measured following […] of the cells to increasing concentrations of TCDD or other toxic compounds (which others are discussed in more detail below).
More particularly, the stable cell clones for the mouse H1L1.1 cells (about 90% confluent) were plated into six-well microplates (purchased from Corning) and incubated for 24 hours with the indicated concentration of the particular toxin solubilized in DMSO. Then, the cells were lysed with 100 μl of lysis buffer and luciferase activity was determined as described above. Values represent the mean ± the standard evaluation of at least triplicate determinations.
As set out in Table 3, the responsiveness and sensitivity of the mouse H1L1.1 cells was compared to the responsiveness and sensitivity of certain other published PCDH cell bioassay systems. The other systems were a recombinant HepG2 (101L) cell line that induces firefly luciferase (see, Postlind et al., supra), a recombinant Hepa1 (T13) cell line that induces PAP activity (see El-Fouly et al., supra), and a rat H4IIE cell line that induces EROD activity (see, Kennedy et al., supra). The ED50 values were calculated by probit analysis of the dose-response data.
As set out in the graphs of FIGS. 3-6, since one use of the stably transfected mouse H1L1.1 cell lines is for detection and relative quantitative analysis of TCDD and various dioxin-like compounds (i.e., AhR ligands), the ability of various compounds besides TCDD to induce luciferase activity in the mouse H1L1.1 cells was examined. The experiments performed to determine the dose-response curves for the toxins other than TCDD set out in the graphs of FIGS. 3-6 were performed in essentially the same manner as the experiments described above to determine the dose response curve of TCDD set out in the graph of FIG. 3.
Specifically, with respect to the data illustrated in the graph of FIG. 3, cells were incubated with increasing concentrations of test chemical and luciferase activity determined after 24 hours.
It should be noted that the low numerical values of luciferase activity from induction by various PCBs reported in FIGS. 4 and 5, compared to the values reported in the other figures, are not due to actual low levels of luciferase induction, but to the fact that the detection of luminescence in these experiments was performed using a different instrument from that used in the other experiments.
However, the relative magnitude of luciferase induction by the mono-ortho-PCBs (FIG. 4) and the AROCLORS (FIG. 5) was established by directly comparing the resulting activity to that produced by a maximally inducing dose of TCDD (1 nM solubilized in DMSO) measured in the same instrument.

[2] = test system: rat AhR; assay: Competitive inhibition of TCDD binding to AhR
[3] = test system: mouse AhR; assay: Competitive inhibition of TCDD binding to AhR
[4] = test system: guinea pig AhR; assay: Competitive inhibition of TCDD binding to AhR
[5] = test system: human HG2L1.1c3 cells; assay: Antagonism of TCDD luciferase induction by 2,2',5,5'-TCB (FIG. 7); type: cell-based; conditions: 24 h
Method: (§1) The bar graph of FIG. 7 illustrates that 2,2',5,5'-TCB antagonizes induction of luciferase activity by TCDD in a species-specific manner, and thus, 2,2',5,5'-TCB is not a TCDD-like compound as defined herein. In particular, six-well plates containing the indicated cell lines were incubated with DMSO (control), with TCDD (5 nM), with 2,2',5,5'-TCB (25 μM), or with both TCDD (5 nM) and 2,2',5,5'-TCB (25 μM) for 24 hours. Luciferase activity in cell lysates was determined as described above. Values represent the mean ± the standard evaluation of at least triplicate determinations.

[6] = test system: rat H4L1.1c4 cells; assay: as above; type: cell-based; conditions: 24 h
Method: as §1

[7] = test system: guinea pig G16L1.1c8 cells; assay: as above; type: cell-based; conditions: 24 h
Method: as §1

[8] = test system: mouse H1L1.1 cells; assay: as above; type: cell-based
Method: as §1

SMILES: Clc1cc2c(cc1Cl)Oc1c(Cl)c(Cl)cc(Cl)c1O2 [1,2,4,7,8-PCDD, 1,2,4,7,8-pentachlorodibenzo-p-dioxin]
- Luciferase activation ([1]; up to 10 μM, 24 h, FIG. 3): no luciferase activation

SMILES: Clc1ccc(Cl)c(-c2cc(Cl)ccc2Cl)c1 [2,2',5,5'-TCB, 2,2',5,5'-tetrachlorobiphenyl]
- Competitive inhibition of TCDD binding [2]: competitively to inhibit TCDD binding
- Competitive inhibition of TCDD binding [3]: competitively to inhibit TCDD binding
- Competitive inhibition of TCDD binding [4]: but not to the guinea pig and human AhRs
- Effect of 2,2',5,5'-TCB alone on luciferase activity ([5]; 25 μM): no significant effect
- Effect of 2,2',5,5'-TCB on TCDD luciferase induction ([5]; TCB 25 μM + TCDD 5 nM): not affected
- Effect of 2,2',5,5'-TCB alone on luciferase activity ([6]; 25 μM): no significant effect
- Reduction of TCDD luciferase induction ([6]; TCB 25 μM + TCDD 5 nM): 47%
- Effect of 2,2',5,5'-TCB alone on luciferase activity ([7]; 25 μM): no significant effect
- Effect of 2,2',5,5'-TCB on TCDD luciferase induction ([7]; TCB 25 μM + TCDD 5 nM): not affected
- Effect of 2,2',5,5'-TCB alone on luciferase activity ([8]; 25 μM, 24 h): no significant effect
- Luminescence response of H1L1.1 cells ([8]; 2,2',5,5'-TCB alone, in words): will not cause the novel mouse H1L1.1 cell line to respond with luminescence
- Reduction of TCDD luciferase induction ([8]; TCB 25 μM + TCDD 5 nM, 24 h): 86%
- Antagonism when added with TCDD ([8]; in words): acts as an antagonist

SMILES: Clc1ccc(-c2cc(Cl)c(Cl)c(Cl)c2Cl)cc1Cl [2,3,3',4,4',5-HCB, 2,3,3',4,4',5-hexachlorobiphenyl]
- Emax ([1]; 24 h): 20 to 30%
- Induction of luciferase activity ([1]; 24 h): 10 fold

SMILES: Clc1ccc(-c2cc(Cl)c(Cl)c(Cl)c2Cl)cc1 [2,3,4,4',5-PCB, 2,3,4,4',5-pentachlorobiphenyl]
- Emax ([1]; 24 h): 20 to 30%
- Induction of luciferase activity ([1]; 24 h): 10 fold

SMILES: Clc1cc2oc3c(Cl)c(Cl)c(Cl)cc3c2cc1Cl [2,3,4,7,8-PCDF, 2,3,4,7,8-pentachlorodibenzofuran]
- Level of luciferase induction relative to TCDD ([1]; 24 h, FIG. 3): comparable levels
- EC50 ([1]; 24 h, FIG. 3): ~2 nM

SMILES: Clc1cc2oc3cc(Cl)c(Cl)cc3c2cc1Cl [2,3,7,8-TCDF, 2,3,7,8-tetrachlorodibenzofuran]
- Level of luciferase induction relative to TCDD ([1]; 24 h, FIG. 3): comparable levels
- EC50 ([1]; 24 h, FIG. 3): ~0.05 nM

SMILES: Clc1ccc(-c2cc(Cl)c(Cl)c(Cl)c2)cc1Cl [3,3',4,4',5-PCB, 3,3',4,4',5-pentachlorobiphenyl]
- Level of luciferase induction relative to TCDD ([1]; 24 h, FIG. 3): comparable maximal levels
- EC50 ([1]; 24 h, FIG. 3): 2 nM

SMILES: Clc1ccc(-c2ccc(Cl)c(Cl)c2)cc1Cl [3,3',4,4'-TCB, 3,3',4,4'-tetrachlorobiphenyl]
- Level of luciferase induction relative to TCDD ([1]; 24 h, FIG. 3): comparable maximal levels
- EC50 ([1]; 24 h, FIG. 3): 100 nM

SMILES: Cc1ccc2cc3c(ccc4ccccc43)c3c2c1CC3 [3-MC, 3-methylcholanthrene]
- Maximal luciferase expression [1]: maximal luciferase expression was not reached
- Relative inducing potency versus TCDD [1]: substantially less potent than TCDD

SMILES: c1ccc2cc3c(ccc4ccccc43)cc2c1 [BA, benz[a]anthracene]
- Maximal luciferase expression [1]: maximal luciferase expression was not reached
- Relative inducing potency versus TCDD [1]: substantially less potent than TCDD

SMILES: O=c1cc(-c2ccccc2)oc2ccc3ccccc3c12 [BNF, β-naphthoflavone]
- Maximal luciferase expression [1]: maximal luciferase expression was not reached
- Relative inducing potency versus TCDD [1]: substantially less potent than TCDD
